Measured values reported in patent publication US11413278B2, “Compounds and methods for promoting stress resistance” (priority 2015, dated 2022).
Read-outs that look alike come from different tables or passages of the source.

Columns and labels:
[1] = tested on: WI-38 cells; assay: CdCl2 (cadmium) resistance assay; assay type: cell-based, human; conditions: for fold induction at 10 µM: Homo sapiens, 12 h, normalized ATP measurement; for Assay 4: H2O2- & Cd-resistant / Assay 2: Cadmium-resistant: YES/NO; for Assay 2: Cadmium-resistant: * indicates partial
Method in brief: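 WI-38 cells were given compounds at five final concentrations (0.25–20 μM) in triplicate, followed by cadmium or MMS for 12 h. For MMS, medium was switched from OptiMEM+10% FBS to serum-free DMEM+2% BSA when compounds were added, 24 h before stressor. Two independent assays were run, analysed by global variance t-test.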

[2] = tested on: WI-38 cells; conditions: for PI cell-death imaging without H2O2 (indicating potential toxicity): Assay 8(k), without H2O2, at 10 uM; for PI-positive dead cells under normal conditions: control 0.4±0.2%; for Percentage of propidium iodide-positive dead cells (no H2O2 stress treatment), at 10 uM: negative control 0.41% ± 0.23%
Procedure: WI-38 cells were seeded on 384-well plates for 24 hrs and then incubated with small molecules for 24 hrs. […] Images were collected on an INCell Analyzer 2000 (GE) and analyzed with the Developer software.

[3] = tested on: WI-38 cells; assay: Long-term effects on cell viability (5 days, ATP; morphology, PI imaging); assay type: cell-based; conditions: for viability at 10 µM: Homo sapiens, WI-38, 120 h, read-out: ATP luminescence by day-5 normalized; for O = Potential toxicity / Q = Potential toxicity: human, 5 days;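 as to Luminescence signal for ATP measurement, day-2 Average: compounds at 10 µM with ATP read daily over 5 days of treatment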;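 as to Luminescence signal for ATP measurement, day-3 Average: compounds at 10 µM with ATP read daily over 5 days of treatment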;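 as to Luminescence signal for ATP measurement, day-4 Average: compounds at 10 µM with ATP read daily over 5 days of treatment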;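 as to Luminescence signal for ATP measurement, day-5 Average: compounds at 10 µM with ATP read daily over 5 days of treatment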
[4] = tested on: mTOR; assay: mTOR inhibition (RPS6 phosphorylation status), In-Cell Western; assay type: cell-based, human
Method in brief: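 WI-38 cells exposed to compounds at 5, 10 and 20 μM for 24 hrs. Fixed cells co-stained overnight at 4° C with anti-RPS and anti-pRPS6 (Ser-235/236) antibodies, then DyLight 680/800 secondaries. Phospho-RPS6 relative to total RPS6 read by near-infrared In-Cell Western imaging.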

[5] = tested on: human dermal fibroblast (HDF) primary cells; assay: H2O2-resistance in primary human dermal fibroblasts; assay type: cell-based; conditions: for fold induction at 10 µM: Homo sapiens; for Assay 6: H2O2-resistant, at 10 uM, human dermal fibroblast (HDF) primary cells: YES/NO
[6] = Exp. 1, WI-38 cells, read-out: Exp. 1, under Cd2Cl2 stress treatment, at 10 uM (fold change)
[7] = Exp. 2, WI-38 cells, read-out: Exp. 2, under Cd2Cl2 stress treatment, at 10 uM (fold change)
[8] = score in summary of 38 core set hits
[9] = Batch 1, 10 μM, day-1, n = 6, day-0 luminescence = 320956 ± 24708
[10] = Batch 1, 10 μM, day-2, n = 6, day-0 luminescence = 320956 ± 24708
[11] = Batch 1, 10 μM, day-3, n = 6, day-0 luminescence = 320956 ± 24708
[12] = Batch 1, 10 μM, day-4, n = 6, day-0 luminescence = 320956 ± 24708
[13] = Batch 1, 10 μM, day-5, n = 6, day-0 luminescence = 320956 ± 24708
[14] = Batch 1, 10 μM, day-5, DMSO ctrl = 100.0%
[15] = Experiment 1, HDF cells, read-out: Experiment 1, HDF cells (under H2O2 stress treatment), at 10 uM (fold change)
[16] = Experiment 2, HDF cells, read-out: Experiment 2, HDF cells (under H2O2 stress treatment), at 10 uM (fold change)
[17] = WI-38 cells, 10 μM, both stressors

| Structure (SMILES) | fold induction at 10 µM [1, 6] | fold induction at 10 µM [1, 7] | A = Cadmium resistant [1, 8] | A = Cadmium resistant ([1]; summary score) | C = H2O2- & Cd-resistant ([1]; summary score) | Percentage of propidium iodide-positive dead cells (no H2O2 stress treatment), at 10 uM [2] | Luminescence signal for ATP measurement, day-1 Average [3, 9] | Luminescence signal for ATP measurement, day-2 Average [3, 10] | Luminescence signal for ATP measurement, day-3 Average [3, 11] | Luminescence signal for ATP measurement, day-4 Average [3, 12] | Luminescence signal for ATP measurement, day-5 Average [3, 13] | viability at 10 µM [3, 14] [%] | O = Potential toxicity ([3]; 10 μM) | Q = Potential toxicity ([3]; 10 μM) | G = mTOR down-regulation ([4]; 2-point score) | G = mTOR down-regulation ([4]; summary score) | fold induction at 10 µM [5, 15] | fold induction at 10 µM [5, 16] | Assay 6: H2O2-resistant, at 10 uM, human dermal fibroblast (HDF) primary cells [5] | Assay 4: H2O2- & Cd-resistant [1] | further results |
| --- | --- | --- | --- | --- | --- | --- | --- | --- | --- | --- | --- | --- | --- | --- | --- | --- | --- | --- | --- | --- | --- |
| COc1ccc(/C=C2\SC(=N)N(c3nccs3)C2=O)cc1 [O21] | 0.03 | 0.04 | 0 | 0 | 0 | 1.09% ± 0.39%, | 460366 | 542268 | 557236 | 677875 | 550651 | 53.6 | 1 | 1 | 0 | 0 | 140 | 25.5 | YES | – | PI cell-death imaging without H2O2 (indicating potential toxicity) [2]: YES; Percentage of propidium iodide-positive (dead) cells under normal conditions (qualitative) ([2]; WI-38, no H2O2): increased the percentage; PI-positive dead cells under normal conditions ([2]; WI-38, no H2O2): 1.1±0.4% |
| CC(C)(C)c1ccc(OCC(=O)Nc2ccc3c4c(cccc24)C(=O)NC3=O)cc1 [O22] | 5.61 | 14.7 | 1 | 1 | 1 | 0.37% ± 0.14%, | 435891 | 566145 | 690403 | 840178 | 805461 | 78.4 | 0 | 0 | 0 | 0 | 15.3 | 49.6 | YES | YES | CdCl2-resistant [1]: YES; H2O2- & CdCl2-resistant [1]: YES; CdCl2-resistant ([1]; WI-38 cells, 10 μM): YES; H2O2- & CdCl2-resistant [1, 17]: YES; Assay 2: Cadmium-resistant [1]: YES |
| COc1cccc(/C=C2\CN(C)C/C(=C\c3cccc(OC)c3OC)C2=O)c1OC [O23] | 0.69 | 0.64 | 0 | 1 | 1 | 2.61% ± 1.37%, | 329880 | 149226 | 52831 | 53125 | 52771 | 5.1 | 1 | 1 | 0 | 0 | 1.68 | 52.4 | YES | YES | Assay 2: Cadmium-resistant [1]: YES; PI cell-death imaging without H2O2 (indicating potential toxicity) [2]: YES; PI-positive dead cells under normal conditions ([2]; WI-38, no H2O2): 2.6%±1.4% |
| Oc1ccccc1-c1noc(-c2ccccc2O)n1 [O27] | – | – | 1 | 1 | 1 | 0.50% ± 0.17%, | – | – | – | – | – | – | 0 | 1 | 2 | 2 | – | – | YES | YES | CdCl2-resistant [1]: YES; H2O2- & CdCl2-resistant [1]: YES; CdCl2-resistant ([1]; WI-38 cells, 10 μM): YES; H2O2- & CdCl2-resistant [1, 17]: YES; Assay 2: Cadmium-resistant [1]: YES; Luminescence signal for ATP measurement, day-1 Average [3]: 431303; Luminescence signal for ATP measurement, day-2 Average [3]: 437195; Luminescence signal for ATP measurement, day-3 Average [3]: 517210; Luminescence signal for ATP measurement, day-4 Average [3]: 634360; Luminescence signal for ATP measurement, day-5 Average [3]: 587798; viability at 10 µM [3]: 57.2%; mTOR inhibition (p-RPS6/RPS6), qualitative [4]: consistently reduced the ratios; mTOR down-regulation by p-RPS6 assays ([4]; Assay 14(q), at 5 uM, 10 uM & 20 uM): YES |
